Patent publication US20120196824A1, “THERAPEUTIC AGENT FOR CEREBRAL INFARCTION” (MITSUBISHI TANABE PHARMA CORPORATION, priority 2009, published 2012)
Structures can show the parent of a compound that is named as a salt.

Target: T1, Human-recombinant-S-Adenosyl-L-Homocysteine Hydrolase (Homo sapiens, UniProt P23526)
T1 construct: purchased Diazyme Laboratories
Test: Measurement of enzyme inhibitory activity (hydrolysis of S-Adenosyl-L-Homocysteine, HPLC)
Type: biochemical
Conditions: S-Adenosyl-L-Homocysteine 10 μM, pH 7.2, 37° C., 15 min
Procedure: The enzyme inhibitory activity of the compounds of the Examples was measured using the hydrolysis activity of S-Adenosyl-L-Homocysteine as an index. The measurement method was modification of the method of Henry H. Richards et al. (J. Biol. Chem. 253, 4476-4480, 1978). That is, S-Adenosyl-L-Homocysteine (10 μM) and Adenosine Deaminase (Roche) (4 units) were added to 50 mM phosphate buffer (pH 7.2, containing 1 mM EDTA) with the total amount being 200 μl, and to the solution were added a test substance and then Human-recombinant-S-Adenosyl-L-Homocysteine Hydrolase (50 ng, Diazyme Laboratories) to start the reaction, and the mixture was incubated at 37° C. for 15 min. The reaction was quenched by the addition of 1N aqueous perchloric solution (20 μl), and the mixture was centrifuged under the conditions of 10000 rpm, 5 min, 4° C. The supernatant was collected, and the amount of S-Adenosyl-L-Homocysteine after the reaction was quantified by HPLC. The column used was a reversed-phase column. The detailed conditions of HPLC were as follows.
column used: Wakopak^R HandyODS 150*4.6 mm (Wako Pure Chemical Industries, Ltd.) elution condition: 1.0 ml/min elution solvent: 0.1M acetate buffer (pH 4.0) containing 10 mM 1-heptanesulfonic acid containing 4% acetonitrile wavelength: 258 nm (UV) The inhibitory rate was determined with the amount of decrease in S-Adenosyl-L-Homocysteine before and after the reaction without using the test substance as 100%.
Inhibitory rate (%)={(amount of decrease of S-Adenosyl-L-Homocysteine in the presence of test substance)/(amount of decrease of S-Adenosyl-L-Homocysteine in the absence of test substance)}×100

T1 sequence (P23526 whole entry): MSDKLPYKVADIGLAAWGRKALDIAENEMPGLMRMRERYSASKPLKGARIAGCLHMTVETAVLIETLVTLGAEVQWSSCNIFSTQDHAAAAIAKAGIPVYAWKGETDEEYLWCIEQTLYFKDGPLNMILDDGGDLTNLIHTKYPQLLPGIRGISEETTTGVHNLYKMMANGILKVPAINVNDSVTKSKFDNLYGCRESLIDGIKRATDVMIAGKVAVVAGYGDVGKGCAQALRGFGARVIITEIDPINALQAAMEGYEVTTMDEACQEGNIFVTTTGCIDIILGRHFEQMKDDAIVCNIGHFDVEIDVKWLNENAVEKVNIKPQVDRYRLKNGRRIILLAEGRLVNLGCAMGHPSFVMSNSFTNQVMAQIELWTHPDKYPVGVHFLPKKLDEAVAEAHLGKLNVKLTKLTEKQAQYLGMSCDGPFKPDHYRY

Point of comparison: `CCNCCNC(=O)CN(CC(=O)N(C)N1Cc2ccccc2C1)c1ccc(N2CCCC2=O)cc1C` [Example 298, N^2-{2-[1,3-dihydro-2H-isoindol-2-yl(methyl)amino]-2-oxoethyl}-N^2-[2-methyl-4-(2-oxopyrrolidin-1-yl)phenyl]-N^1-[2-(ethylamino)ethyl]glycinamide dihydrochloride], IC50 0.05 µM. Against it:
- CCNCCNC(=O)CN(CC(=O)N(C)N1Cc2ccc(F)cc2C1)c1ccc(-c2nc(C(N)=O)cs2)cc1C [Example 308, N^2-{4-[4-(aminocarbonyl)-1,3-thiazol-2-yl]-2-methylphenyl}-N^2-{2-[(5-fluoro-1,3-dihydro-2H-isoindol-2-yl)(methyl)amino]-2-oxoethyl}-N^1-[2-(ethylamino)ethyl]glycinamide dihydrochloride] — 1.9-fold lower, 0.026 µM
- CCNCCNC(=O)CN(CC(=O)N(C)N1Cc2ccccc2C1)c1cc2c(C)noc2cc1C [Example 181, N^2-{2-[1,3-dihydro-2H-isoindol-2-yl(methyl)amino]-2-oxoethyl}-N^2-(3,6-dimethyl-1,2-benzisoxazol-5-yl)-N^1-[2-(ethylamino)ethyl]glycinamide] — 3.1-fold lower, 0.016 µM
- CCNCCNC(=O)CN(CC(=O)N(C)N1Cc2ccccc2C1)c1cc(-c2nc(C)no2)ccc1C [Example 85, N^2-{2-[1,3-dihydro-2H-isoindol-2-yl(methyl)amino]-2-oxoethyl}-N^2-[2-methyl-5-(3-methyl-1,2,4-oxadiazol-5-yl)phenyl]-N^1-[2-(ethylamino)ethyl]glycinamide] — 2.9-fold lower, 0.017 µM
- CCNCCNC(=O)CN(CC(=O)N(C)N1Cc2ccccc2C1)c1cc2c(cc1C)oc(=O)n2C [Example 191, N^2-{2-[1,3-dihydro-2H-isoindol-2-yl(methyl)amino]-2-oxoethyl}-N^2-(3,6-dimethyl-1,3-benzoxazol-2(3H)-on-5-yl)-N^1-[2-(ethylamino)ethyl]glycinamide] — within 1.5-fold, 0.051 µM
- Cc1cc2oc(=O)n(C)c2cc1N(CC(=O)NCCNC(C)C)CC(=O)N(C)N1Cc2ccccc2C1 [Example 190, N^2-{2-[1,3-dihydro-2H-isoindol-2-yl(methyl)amino]-2-oxoethyl}-N^2-(3,6-dimethyl-1,3-benzoxazol-2(3H)-on-5-yl)-N^1-[2-(isopropylamino)ethyl]glycinamide] — 1.8-fold higher, 0.088 µM
- CCNCCNC(=O)CN(CC(=O)N(C)N1Cc2ccccc2C1)c1cc2c(cc1C)N(CC)C(=O)CC2 [Example 177, N^2-{2-[1,3-dihydro-2H-isoindol-2-yl(methyl)amino]-2-oxoethyl}-N^2-(1-ethyl-7-methyl-2-oxo-1,2,3,4-tetrahydroquinolin-6-yl)-N^1-[2-(ethylamino)ethyl]glycinamide] — within 1.5-fold, 0.046 µM
- CCNCCNC(=O)CN(CC(=O)N(C)N1Cc2ccccc2C1)c1cc(-c2ncccn2)ccc1C [Example 129, N^2-{2-[1,3-dihydro-2H-isoindol-2-yl(methyl)amino]-2-oxoethyl}-N^2-(2-methyl-5-pyrimidin-2-ylphenyl)-N^1-[2-(ethylamino)ethyl]glycinamide] — 5-fold lower, 0.01 µM
- CCNCCNC(=O)CN(CC(=O)N(C)N1Cc2ccccc2C1)c1cc(-c2noc(C)n2)ccc1C [Example 16, N^2-{2-[1,3-dihydro-2H-isoindol-2-yl(methyl)amino]-2-oxoethyl}-N^2-[2-methyl-5-(5-methyl-1,2,4-oxadiazol-3-yl)phenyl]-N^1-[2-(ethylamino)ethyl]glycinamide] — 2.6-fold lower, 0.019 µM
- Cc1noc(-c2ccc(C)c(N(CC(=O)NCCNC(C)C)CC(=O)N(C)N3Cc4ccccc4C3)c2)n1 [Example 84, N^2-{2-[1,3-dihydro-2H-isoindol-2-yl(methyl)amino]-2-oxoethyl}-N^2-[2-methyl-5-(3-methyl-1,2,4-oxadiazol-5-yl)phenyl]-N^1-[2-(isopropylamino)ethyl]glycinamide] — within 1.5-fold, 0.034 µM
- CCNCCNC(=O)CN(CC(=O)N(C)N1Cc2ccccc2C1)c1cc2cn(C)nc2cc1C [Example 243, N^2-{2-[1,3-dihydro-2H-isoindol-2-yl(methyl)amino]-2-oxoethyl}-N^2-(2,6-dimethyl-2H-indazol-5-yl)-N^1-[2-(ethylamino)ethyl]glycinamide hydrochloride] — 7.1-fold lower, 0.007 µM
- CCNCCNC(=O)CN(CC(=O)N(C)N1Cc2ccccc2C1)c1cc2c(cc1C)CCC2=O [Example 214, N^2-{2-[1,3-dihydro-2H-isoindol-2-yl(methyl)amino]-2-oxoethyl}-N^2-(6-methyl-3-oxo-2,3-dihydro-1H-inden-5-yl)-N^1-[2-(ethylamino)ethyl]glycinamide] — 2.2-fold lower, 0.023 µM
- CCNCCNC(=O)CN(CC(=O)N(C)N1Cc2ccccc2C1)c1ccc(-c2ccc(C(N)=O)cn2)cc1C [Example 301, N^2-{4-[5-(aminocarbonyl)pyridin-2-yl]-2-methylphenyl}-N^2-{2-[1,3-dihydro-2H-isoindol-2-yl(methyl)amino]-2-oxoethyl}-N^1-[2-(ethylamino)ethyl]glycinamide dihydrochloride] — within 1.5-fold, 0.037 µM
- CCNCCNC(=O)CN(CC(=O)N(C)N1Cc2ccc(F)cc2C1)c1cc2c(C)nn(C)c2cc1C [Example 256, N^2-{2-[(5-fluoro-1,3-dihydro-2H-isoindol-2-yl)(methyl)amino]-2-oxoethyl}-N^2-(1,3,6-trimethyl-1H-indazol-5-yl)-N^1-[2-(ethylamino)ethyl]glycinamide hydrochloride] — within 1.5-fold, 0.047 µM
- CCNCCNC(=O)CN(CC(=O)N(C)C1Cc2ccccc2C1)c1cc(-c2noc(C)n2)ccc1C [Example 26, N^2-{2-[2,3-dihydro-1H-inden-2-yl(methyl)amino]-2-oxoethyl}-N^2-[2-methyl-5-(5-methyl-1,2,4-oxadiazol-3-yl)phenyl]-N^1-[2-(ethylamino)ethyl]glycinamide] — within 1.5-fold, 0.056 µM
- CCNCCNC(=O)CN(CC(=O)N(C)N1Cc2ccc(F)cc2C1)c1ccc(-c2noc(C)n2)cc1C [Example 204, N^2-{2-[(5-fluoro-1,3-dihydro-2H-isoindol-2-yl)(methyl)amino]-2-oxoethyl}-N^2-[2-methyl-4-(5-methyl-1,2,4-oxadiazol-3-yl)phenyl]-N^1-[2-(ethylamino)ethyl]glycinamide] — within 1.5-fold, 0.065 µM
- CCNCCNC(=O)CN(CC(=O)N(C)N1Cc2ccccc2C1)c1ccc(-c2nc(C(N)=O)co2)cc1C [Example 309, N^2-{4-[4-(aminocarbonyl)-1,3-oxazol-2-yl]-2-methylphenyl}-N^2-{2-[1,3-dihydro-2H-isoindol-2-yl(methyl)amino]-2-oxoethyl}-N^1-[2-(ethylamino)ethyl]glycinamide dihydrochloride] — 2.2-fold lower, 0.023 µM
- Cc1cc2c(cc1N(CC(=O)NCCNC(C)C)CC(=O)N(C)N1Cc3ccccc3C1)oc(=O)n2C [Example 192, N^2-{2-[1,3-dihydro-2H-isoindol-2-yl(methyl)amino]-2-oxoethyl}-N^2-(3,5-dimethyl-1,3-benzoxazol-2(3H)-on-6-yl)-N^1-[2-(isopropylamino)ethyl]glycinamide] — within 1.5-fold, 0.046 µM
- Cc1cc2c(cnn2C)cc1N(CC(=O)NCCNC(C)C)CC(=O)N(C)N1Cc2ccccc2C1 [Example 242, N^2-{2-[1,3-dihydro-2H-isoindol-2-yl(methyl)amino]-2-oxoethyl}-N^2-(1,6-dimethyl-1H-indazol-5-yl)-N^1-[2-(isopropylamino)ethyl]glycinamide hydrochloride] — 8.3-fold lower, 0.006 µM
- CCNCCNC(=O)CN(CC(=O)N(C)N1Cc2cccc(F)c2C1)c1cc(-c2noc(C)n2)ccc1C [Example 19, N^2-{2-[(4-fluoro-1,3-dihydro-2H-isoindol-2-yl)(methyl)amino]-2-oxoethyl}-N^2-[2-methyl-5-(5-methyl-1,2,4-oxadiazol-3-yl)phenyl]-N^1-[2-(ethylamino)ethyl]glycinamide] — 1.5-fold lower, 0.033 µM

Tested on: homocysteine synthesis
Test: Measurement of homocysteine synthesis inhibitory activity in vivo (methionine-loaded mouse, plasma homocysteine)
Conditions: dose of 10 mg/kg, oral, BALB/c mouse; methionine water 1 hr later; plasma 30 min after; read-out: activity (homocysteine synthesis inhibitory rate)
Procedure: A sample was orally administered to BALB/c mouse and, 1 hr later, methionine water (50 g/L) was orally administered at a proportion of 10 ml/kg. 30 min later, blood samples were collected with heparin from the abdominal vein and plasma was obtained. The plasma homocysteine concentration was measured by treating the plasma with tributylphosphine, removing protein with 10% trichloroacetic acid (TCA), fluorescent labeling the supernatant with 4-fluoro-7-sulfobenzofurazan ammonium salt (SBD-F) under alkali conditions, and quantifying by HPLC. The homocysteine synthesis inhibitory rate of the sample was determined with the difference in the homocysteine value between methionine water-loaded animal and methionine water-unloaded animal as 100%. The detailed conditions of HPLC were as follows.
column used: Wakopak^R HandyODS 150*4.6 mm (Wako Pure Chemical Industries, Ltd.) elution condition: 1.0 ml/min elution solvent: 0.1M phosphate buffer (pH 6.0) 2% methanol wavelength: ex 385 nm em 515 nm

`Cc1nnc(-c2ccc(C)c(N(CC(=O)NCCNC(C)C)CC(=O)N(C)N3Cc4ccccc4C3)c2)s1` [Example 105, N^2-{2-[1,3-dihydro-2H-isoindol-2-yl(methyl)amino]-2-oxoethyl}-N^2-[2-methyl-5-(5-methyl-1,3,4-thiadiazol-2-yl)phenyl]-N^1-[2-(isopropylamino)ethyl]glycinamide dihydrochloride] and `CCNCCNC(=O)CN(CC(=O)N(C)N1Cc2ccccc2C1)c1ccc(-c2cnn(C)c2)cc1C` [Example 136, N^2-{2-[1,3-dihydro-2H-isoindol-2-yl(methyl)amino]-2-oxoethyl}-N^2-[2-methyl-4-(1-methyl-1H-pyrazol-4-yl)phenyl]-N^1-[2-(ethylamino)ethyl]glycinamide trihydrochloride] cannot be ordered by inhibition in vivo at 10 mg/kg: 20 to 40% for the first, at least 40% for the second.
